One compound from patent US20120270237A9, “METHODS FOR THE IDENTIFICATION OF KINASE INTERACTING MOLECULES AND FOR THE PURIFICATION OF KINASE PROTEINS” (Cellzone AG, priority 2009, published 2012) can be followed below.

What all share (test): Kinobeads competition binding, HL60 cell lysate
Common to all, as to details: 10 μM free compound

One test has as its target T1, MAP2K5 (Homo sapiens, UniProt Q13163).
T1 sequence (Q13163 1-448): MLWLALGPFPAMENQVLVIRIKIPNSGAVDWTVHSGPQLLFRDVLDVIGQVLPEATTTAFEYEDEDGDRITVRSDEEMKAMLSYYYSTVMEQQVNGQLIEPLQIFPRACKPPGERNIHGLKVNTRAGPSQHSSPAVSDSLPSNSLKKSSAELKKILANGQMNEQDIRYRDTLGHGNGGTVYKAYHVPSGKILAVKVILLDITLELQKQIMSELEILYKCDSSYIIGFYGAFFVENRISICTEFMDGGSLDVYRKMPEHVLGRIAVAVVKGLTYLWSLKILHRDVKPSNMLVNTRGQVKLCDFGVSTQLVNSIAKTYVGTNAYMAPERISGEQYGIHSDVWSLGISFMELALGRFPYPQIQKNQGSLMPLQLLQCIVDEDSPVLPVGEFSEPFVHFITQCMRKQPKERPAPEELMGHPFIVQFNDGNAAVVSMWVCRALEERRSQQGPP
Summed up: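 Relative binding comes from iTRAQ reporter signals after Kinobeads-style pull-down from HL60 lysate in the presence of 10 μM free compound versus solvent.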

The target of another test is DNAPK (Homo sapiens, UniProt P78527). On the set-up: endogenous in cells; host or cells: HL60 (DSMZ ACC3). Here is the method:
(§1) To one aliquot of cell lysate 10 μM of the free compound (FIG. 3, CZC31326) was added and allowed to bind to proteins in the lysate. Then the affinity matrix with the immobilized compound (Example 1) was added to capture proteins that were not interacting with the previously added free compound. Beads were separated from the lysate and bead bound proteins were eluted in SDS sample buffer and subsequently separated by SDS-Polyacrylamide gel electrophoresis (FIG. 4). Suitable gel bands were cut out and subjected to in-gel proteolytic digestion with trypsin. The second lysate aliquot was processed identically, however no free compound was added (DMSO solvent control). Peptides originating from samples 1 and 2 were labeled with iTRAQ reagents (iTRAQ 114 and iTRAQ 117) and the combined samples were analyzed with a nano-flow liquid chromatography system coupled online to a tandem mass spectrometer (LC-MS/MS) experiment followed by iTRAQ reporter ion quantification in the MS/MS spectra (Ross et al., 2004. Mol. Cell. Proteomics 3(12):1154-1169). Further experimental protocols can be found in WO2006/134056 and a previous publication (Bantscheff et al., 2007. Nature Biotechnology 25, 1035-1044). Sepharose-beads with the immobilized compound (100 μl beads per pull-down experiment) were equilibrated in lysis buffer and incubated with a cell lysate sample containing 50 mg of protein on an end-over-end shaker (Roto Shake Genie, Scientific Industries Inc.) for 2 hours at 4° C. […] The iTRAQ reagents are a set of multiplexed, amine-specific, stable isotope reagents that can label peptides on amino groups in up to four different biological samples enabling simultaneous identification and quantitation of peptides. […] Relative protein quantitation was performed using peak areas of iTRAQ reporter ion signals essentially as described in an earlier publication (Bantscheff et al., 2007. Nature Biotechnology 25, 1035-1044).

The next test addresses Erk1 (Homo sapiens, UniProt P27361). The arrangement: endogenous in cells; host or cells: HL60 (DSMZ ACC3). How it is done:
as §1

The next test addresses FER (Homo sapiens, UniProt P16591). On the set-up: endogenous in cells; host or cells: HL60 (DSMZ ACC3). Here is the method:
as §1

DNAPK, sequence (P78527 whole entry): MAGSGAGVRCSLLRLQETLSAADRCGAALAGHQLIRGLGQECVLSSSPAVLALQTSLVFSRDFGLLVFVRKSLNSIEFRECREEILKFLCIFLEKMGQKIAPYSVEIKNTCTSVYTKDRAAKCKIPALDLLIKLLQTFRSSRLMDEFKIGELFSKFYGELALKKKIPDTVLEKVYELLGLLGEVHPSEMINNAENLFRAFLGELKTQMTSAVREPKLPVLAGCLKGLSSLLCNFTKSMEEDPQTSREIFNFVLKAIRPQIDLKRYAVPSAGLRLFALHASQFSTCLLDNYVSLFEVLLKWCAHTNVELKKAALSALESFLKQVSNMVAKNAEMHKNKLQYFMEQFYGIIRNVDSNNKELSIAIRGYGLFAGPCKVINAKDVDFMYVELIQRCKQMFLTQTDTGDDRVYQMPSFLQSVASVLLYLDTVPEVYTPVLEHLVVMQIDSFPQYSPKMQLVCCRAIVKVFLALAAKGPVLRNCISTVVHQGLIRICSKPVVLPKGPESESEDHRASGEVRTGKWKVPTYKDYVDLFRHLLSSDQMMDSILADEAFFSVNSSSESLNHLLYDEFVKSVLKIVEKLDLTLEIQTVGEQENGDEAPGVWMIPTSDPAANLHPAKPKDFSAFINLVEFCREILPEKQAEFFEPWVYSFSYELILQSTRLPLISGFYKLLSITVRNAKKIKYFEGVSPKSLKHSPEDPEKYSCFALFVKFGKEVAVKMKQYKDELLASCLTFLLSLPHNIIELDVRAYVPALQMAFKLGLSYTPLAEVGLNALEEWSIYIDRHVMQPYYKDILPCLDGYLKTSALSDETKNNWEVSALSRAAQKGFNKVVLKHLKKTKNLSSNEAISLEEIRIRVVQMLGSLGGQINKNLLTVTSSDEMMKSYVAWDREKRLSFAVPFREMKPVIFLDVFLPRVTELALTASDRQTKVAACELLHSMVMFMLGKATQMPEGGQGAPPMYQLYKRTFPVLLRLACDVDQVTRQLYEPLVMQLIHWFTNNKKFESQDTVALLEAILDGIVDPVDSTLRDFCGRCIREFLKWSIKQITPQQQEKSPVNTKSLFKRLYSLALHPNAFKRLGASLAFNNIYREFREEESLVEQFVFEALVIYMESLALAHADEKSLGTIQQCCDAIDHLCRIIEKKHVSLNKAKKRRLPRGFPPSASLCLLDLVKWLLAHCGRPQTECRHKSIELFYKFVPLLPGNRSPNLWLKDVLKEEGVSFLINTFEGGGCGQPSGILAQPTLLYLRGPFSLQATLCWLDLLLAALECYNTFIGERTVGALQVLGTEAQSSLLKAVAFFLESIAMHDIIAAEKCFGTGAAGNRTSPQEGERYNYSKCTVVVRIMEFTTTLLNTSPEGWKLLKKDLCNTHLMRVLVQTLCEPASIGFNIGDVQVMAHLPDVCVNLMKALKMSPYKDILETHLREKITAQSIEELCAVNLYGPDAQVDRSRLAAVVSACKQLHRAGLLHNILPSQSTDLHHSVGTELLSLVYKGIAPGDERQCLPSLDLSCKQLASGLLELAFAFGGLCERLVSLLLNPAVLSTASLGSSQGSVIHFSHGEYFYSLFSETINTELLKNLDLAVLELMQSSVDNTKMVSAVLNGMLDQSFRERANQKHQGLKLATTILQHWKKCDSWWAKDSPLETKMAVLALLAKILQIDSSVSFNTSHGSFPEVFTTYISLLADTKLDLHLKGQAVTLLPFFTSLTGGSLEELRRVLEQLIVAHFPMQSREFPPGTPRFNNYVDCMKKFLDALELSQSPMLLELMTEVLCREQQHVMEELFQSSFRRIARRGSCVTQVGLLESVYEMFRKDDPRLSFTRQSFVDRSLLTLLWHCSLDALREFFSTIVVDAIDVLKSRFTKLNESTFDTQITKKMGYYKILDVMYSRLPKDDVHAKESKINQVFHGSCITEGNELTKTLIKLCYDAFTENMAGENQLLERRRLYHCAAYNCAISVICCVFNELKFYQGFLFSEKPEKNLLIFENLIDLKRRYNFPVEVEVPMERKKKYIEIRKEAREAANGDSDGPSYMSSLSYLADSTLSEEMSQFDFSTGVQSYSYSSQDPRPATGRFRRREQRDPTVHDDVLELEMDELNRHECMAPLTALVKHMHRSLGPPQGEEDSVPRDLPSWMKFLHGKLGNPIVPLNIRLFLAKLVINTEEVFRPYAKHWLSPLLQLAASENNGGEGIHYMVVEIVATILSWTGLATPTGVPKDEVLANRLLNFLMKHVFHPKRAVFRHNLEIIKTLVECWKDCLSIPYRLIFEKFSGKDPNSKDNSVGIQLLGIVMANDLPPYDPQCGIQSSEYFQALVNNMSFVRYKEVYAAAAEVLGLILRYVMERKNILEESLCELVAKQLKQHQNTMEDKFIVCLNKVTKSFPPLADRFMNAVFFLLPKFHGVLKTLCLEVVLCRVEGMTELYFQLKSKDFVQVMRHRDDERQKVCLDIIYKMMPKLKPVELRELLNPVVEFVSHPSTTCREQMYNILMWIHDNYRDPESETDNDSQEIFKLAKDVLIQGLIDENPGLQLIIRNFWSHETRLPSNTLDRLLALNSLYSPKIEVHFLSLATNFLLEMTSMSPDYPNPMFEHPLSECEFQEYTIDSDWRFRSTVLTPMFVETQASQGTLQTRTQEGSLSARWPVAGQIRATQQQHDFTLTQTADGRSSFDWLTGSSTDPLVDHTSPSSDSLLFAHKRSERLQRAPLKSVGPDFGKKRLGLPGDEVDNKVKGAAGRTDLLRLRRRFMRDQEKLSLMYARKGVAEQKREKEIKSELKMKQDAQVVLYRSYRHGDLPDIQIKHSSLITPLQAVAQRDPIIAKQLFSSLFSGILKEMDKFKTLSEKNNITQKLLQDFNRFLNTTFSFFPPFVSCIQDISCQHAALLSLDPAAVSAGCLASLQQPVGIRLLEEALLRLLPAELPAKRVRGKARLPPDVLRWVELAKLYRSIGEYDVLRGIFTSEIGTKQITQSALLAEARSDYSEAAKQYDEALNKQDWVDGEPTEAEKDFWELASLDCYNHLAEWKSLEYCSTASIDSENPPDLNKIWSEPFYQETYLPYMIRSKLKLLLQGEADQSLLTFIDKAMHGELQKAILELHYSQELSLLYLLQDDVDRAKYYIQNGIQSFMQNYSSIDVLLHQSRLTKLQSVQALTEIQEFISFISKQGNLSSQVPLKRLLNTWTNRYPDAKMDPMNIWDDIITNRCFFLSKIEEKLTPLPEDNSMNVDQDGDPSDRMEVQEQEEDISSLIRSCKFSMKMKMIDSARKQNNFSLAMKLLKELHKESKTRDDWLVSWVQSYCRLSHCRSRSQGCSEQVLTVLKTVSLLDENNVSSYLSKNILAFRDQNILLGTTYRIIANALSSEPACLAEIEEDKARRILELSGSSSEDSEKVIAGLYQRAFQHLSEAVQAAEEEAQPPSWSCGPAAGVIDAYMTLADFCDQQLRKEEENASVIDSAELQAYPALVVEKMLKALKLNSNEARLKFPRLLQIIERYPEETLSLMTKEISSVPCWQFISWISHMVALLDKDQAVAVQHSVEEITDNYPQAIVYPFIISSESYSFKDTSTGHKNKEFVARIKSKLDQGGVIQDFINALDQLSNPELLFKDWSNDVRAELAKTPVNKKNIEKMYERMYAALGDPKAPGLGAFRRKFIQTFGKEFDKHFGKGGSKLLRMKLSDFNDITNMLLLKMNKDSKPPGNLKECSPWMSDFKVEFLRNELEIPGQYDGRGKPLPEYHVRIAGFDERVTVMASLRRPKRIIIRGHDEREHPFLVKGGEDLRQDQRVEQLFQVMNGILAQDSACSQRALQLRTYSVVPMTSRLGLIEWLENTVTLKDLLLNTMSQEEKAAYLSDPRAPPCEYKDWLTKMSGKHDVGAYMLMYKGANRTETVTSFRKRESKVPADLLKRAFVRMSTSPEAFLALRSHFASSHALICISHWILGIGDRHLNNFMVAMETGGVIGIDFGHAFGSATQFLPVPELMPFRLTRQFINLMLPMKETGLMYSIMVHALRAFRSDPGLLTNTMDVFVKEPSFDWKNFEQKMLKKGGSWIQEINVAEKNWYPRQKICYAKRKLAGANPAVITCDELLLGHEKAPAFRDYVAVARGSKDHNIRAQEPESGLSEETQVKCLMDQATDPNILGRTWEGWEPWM
Erk1, sequence (P27361 whole entry): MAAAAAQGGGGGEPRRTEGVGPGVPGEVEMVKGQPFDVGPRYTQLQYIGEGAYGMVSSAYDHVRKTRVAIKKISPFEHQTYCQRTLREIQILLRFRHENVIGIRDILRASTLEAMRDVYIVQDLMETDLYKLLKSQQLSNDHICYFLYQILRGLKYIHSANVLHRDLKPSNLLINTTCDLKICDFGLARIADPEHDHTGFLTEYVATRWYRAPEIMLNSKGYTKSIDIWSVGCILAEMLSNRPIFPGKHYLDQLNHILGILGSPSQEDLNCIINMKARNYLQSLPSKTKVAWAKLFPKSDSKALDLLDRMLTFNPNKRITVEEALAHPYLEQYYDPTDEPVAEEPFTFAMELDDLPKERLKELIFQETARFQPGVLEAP

`CS(=O)(=O)Nc1ccccc1Nc1nc(Nc2cccc(OCCN)c2)ncc1Cl` [CZC31326, N-(2-(2-(3-(2-aminoethoxy)phenylamino)-5-chloropyrimidin-4-ylamino)phenyl)methanesulfonamide]: the inhibition at 10 µM on MAP2K5 came to 93.1%; at DNAPK, 75.5%; on Erk1 it was 84.8%; at FER, 97.7%.
